Biological target: T1, T. thermophilus Mfd (Thermus thermophilus, UniProt Q72KB4)
T1 construct: full-length, N-terminal hexahistidine tag, plasmid pET28a-NH-TthMfd, expressed in E. coli BL21(DE3)
T1 sequence (Q72KB4 1-978): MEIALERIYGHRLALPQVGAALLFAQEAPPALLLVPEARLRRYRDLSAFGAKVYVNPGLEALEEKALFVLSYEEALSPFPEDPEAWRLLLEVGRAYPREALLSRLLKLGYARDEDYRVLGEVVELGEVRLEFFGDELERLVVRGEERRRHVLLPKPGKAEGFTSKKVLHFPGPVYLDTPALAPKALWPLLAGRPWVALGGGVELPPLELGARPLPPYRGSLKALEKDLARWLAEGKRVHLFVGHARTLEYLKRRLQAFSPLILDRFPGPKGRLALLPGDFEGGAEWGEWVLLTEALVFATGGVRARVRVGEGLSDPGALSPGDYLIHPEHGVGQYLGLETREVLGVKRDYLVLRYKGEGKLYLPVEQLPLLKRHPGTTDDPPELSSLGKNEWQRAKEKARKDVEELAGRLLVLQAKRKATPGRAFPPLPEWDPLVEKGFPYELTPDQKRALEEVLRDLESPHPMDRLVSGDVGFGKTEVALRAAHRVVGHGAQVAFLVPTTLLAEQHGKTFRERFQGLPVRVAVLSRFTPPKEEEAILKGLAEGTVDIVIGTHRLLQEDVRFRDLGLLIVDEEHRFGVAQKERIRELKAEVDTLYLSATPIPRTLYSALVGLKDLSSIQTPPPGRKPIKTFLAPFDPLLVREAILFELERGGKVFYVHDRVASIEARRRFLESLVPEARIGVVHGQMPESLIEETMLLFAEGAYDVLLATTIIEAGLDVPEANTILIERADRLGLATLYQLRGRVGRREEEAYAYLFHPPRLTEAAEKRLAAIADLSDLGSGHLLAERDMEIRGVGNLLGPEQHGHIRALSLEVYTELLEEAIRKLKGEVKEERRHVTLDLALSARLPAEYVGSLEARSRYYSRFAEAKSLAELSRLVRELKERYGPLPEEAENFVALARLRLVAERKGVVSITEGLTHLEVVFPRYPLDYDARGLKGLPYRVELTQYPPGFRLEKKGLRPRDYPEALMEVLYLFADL
Test: colorimetric phosphate release ATPase assay
Type: biochemical
Details: 10 mM MgCl2, 0.1 M KCl, pH 7.9, 37°C; 0.4-2 mM ATP

Structure (SMILES): Nc1ncnc2c1ncn2[C@@H]1O[C@H](COP(=O)(O)OP(=O)(O)OP(=O)(O)O)[C@@H](O)[C@H]1O [ATP]
- colorimetric phosphate release ATPase assay: ATPase activity assay verified that T. thermophilus Mfd hydrolyzed ATP

Reference: paper PMC7672476, “Structural basis of Mfd-dependent transcription termination” (Nucleic Acids Research, 2020)
